Measured values: the supplement of paper PMC10307832

Legend:
Test in all cases: relative viability (nuclei count vs DMSO), 5 days (fraction); higher = more cells survive
NCI-H1793 = test system: NCI-H1793
Method in brief: (§1)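 Relative viability was taken as the ratio of nuclei in treated wells to nuclei in vehicle wells. Lung cancer cell lines in 1536-well plates received compounds by pin tool one day after seeding, either one drug alone or a fixed anchor-drug dose plus five library-drug doses (not always all listed) in √10 steps. Nuclei were counted on 4× images after 5 days of treatment, and values are medians of duplicate plates.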

HCC-366 = test system: HCC-366
Method in brief: as §1

NCI-H441 = test system: NCI-H441
Method in brief: as §1

NCI-H1651 = test system: NCI-H1651
Method in brief: as §1

LOU-NH91 = test system: LOU-NH91
Method in brief: as §1

NCI-H522 = test system: NCI-H522
Method in brief: as §1

LXF-289 = test system: LXF-289
Method in brief: as §1

NCI-H2347 = test system: NCI-H2347
Method in brief: as §1

HCC-15 = test system: HCC-15
Method in brief: as §1

NCI-H2085 = test system: NCI-H2085
Method in brief: as §1

H3255 = test system: H3255
Method in brief: as §1

NCI-H1915 = test system: NCI-H1915
Method in brief: as §1

LC-2-ad = test system: LC-2-ad
Method in brief: as §1

NCI-H838 = test system: NCI-H838
Method in brief: as §1

SK-MES-1 = test system: SK-MES-1
Method in brief: as §1

HARA = test system: HARA
Method in brief: as §1

NCI-H661 = test system: NCI-H661
Method in brief: as §1

BEN = test system: BEN
Method in brief: as §1

NCI-H647 = test system: NCI-H647
Method in brief: as §1

CAL-12T = test system: CAL-12T
Method in brief: as §1

NCI-H322M = test system: NCI-H322M
Method in brief: as §1

NCI-H2170 = test system: NCI-H2170
Method in brief: as §1

UMC-11 = test system: UMC-11
Method in brief: as §1

NCI-H650 = test system: NCI-H650
Method in brief: as §1

NCI-H1395 = test system: NCI-H1395
Method in brief: as §1

Nc1cccc2c1CN(C1CCC(=O)NC1=O)C2=O (stereo not given) [Lenalidomide] + N=C(N)NC(=N)NCCc1ccccc1 [Phenformin] (partner 250 µM) showed a relative viability (NCI-H1793; first compound 0.253 µM) of 0.384, a relative viability (NCI-H1793; first compound 2.53 µM) of 0.515 and a relative viability (NCI-H1793; first compound 8 µM) of 0.344. It also gave a relative viability (HCC-366; first compound 0.253 µM) of 0.564, a relative viability (HCC-366; first compound 0.8 µM) of 0.547 and a relative viability (HCC-366; first compound 2.53 µM) of 0.691. The relative viability (HCC-366; first compound 8 µM) was 0.548, the relative viability (NCI-H441; first compound 0.253 µM) was 0.827 and the relative viability (NCI-H441; first compound 0.8 µM) was 0.958. For the same compound, the relative viability (NCI-H441; first compound 2.53 µM) was 0.949, the relative viability (NCI-H441; first compound 8 µM) was 0.613 and the relative viability (NCI-H1651; first compound 0.253 µM) was 0.301. It also gave a relative viability (NCI-H1651; first compound 0.8 µM) of 0.351, a relative viability (NCI-H1651; first compound 2.53 µM) of 0.493 and a relative viability (NCI-H1651; first compound 8 µM) of 0.337. The relative viability (LOU-NH91; first compound 0.253 µM) was 0.681, the relative viability (LOU-NH91; first compound 0.8 µM) was 0.584 and the relative viability (LOU-NH91; first compound 2.53 µM) was 0.75. It also gave a relative viability (LOU-NH91; first compound 8 µM) of 0.491, a relative viability (NCI-H522; first compound 0.253 µM) of 0.645 and a relative viability (NCI-H522; first compound 2.53 µM) of 0.643. The relative viability (NCI-H522; first compound 8 µM) was 0.573, the relative viability (LXF-289; first compound 0.253 µM) was 0.536 and the relative viability (LXF-289; first compound 0.8 µM) was 0.547. It also gave a relative viability (LXF-289; first compound 2.53 µM) of 0.565, a relative viability (LXF-289; first compound 8 µM) of 0.58 and a relative viability (NCI-H2347; first compound 0.253 µM) of 0.409. For the same compound, the relative viability (NCI-H2347; first compound 0.8 µM) was 0.488, the relative viability (NCI-H2347; first compound 2.53 µM) was 0.497 and the relative viability (NCI-H2347; first compound 8 µM) was 0.206. It also gave a relative viability (HCC-15; first compound 0.253 µM) of 0.474, a relative viability (HCC-15; first compound 0.8 µM) of 0.489 and a relative viability (HCC-15; first compound 2.53 µM) of 0.53. The relative viability (HCC-15; first compound 8 µM) was 0.482, the relative viability (NCI-H2085; first compound 0.253 µM) was 0.604 and the relative viability (NCI-H2085; first compound 0.8 µM) was 0.653. It also gave a relative viability (NCI-H2085; first compound 2.53 µM) of 0.827, a relative viability (NCI-H2085; first compound 8 µM) of 0.562 and a relative viability (H3255; first compound 0.253 µM) of 0.331. For the same compound, the relative viability (H3255; first compound 0.8 µM) was 0.38, the relative viability (H3255; first compound 2.53 µM) was 0.329 and the relative viability (H3255; first compound 8 µM) was 0.386. The relative viability (NCI-H1915; first compound 0.253 µM) was 0.358, the relative viability (NCI-H1915; first compound 0.8 µM) was 0.373 and the relative viability (NCI-H1915; first compound 2.53 µM) was 0.401. The relative viability (NCI-H1915; first compound 8 µM) was 0.406, the relative viability (LC-2-ad; first compound 0.253 µM) was 0.567 and the relative viability (LC-2-ad; first compound 2.53 µM) was 0.64. For the same compound, the relative viability (LC-2-ad; first compound 8 µM) was 0.585, the relative viability (NCI-H838; first compound 0.253 µM) was 0.545 and the relative viability (NCI-H838; first compound 0.8 µM) was 0.541. The relative viability (NCI-H838; first compound 2.53 µM) was 0.689, the relative viability (NCI-H838; first compound 8 µM) was 0.468 and the relative viability (SK-MES-1; first compound 0.253 µM) was 0.556. For the same compound, the relative viability (SK-MES-1; first compound 0.8 µM) was 0.678, the relative viability (SK-MES-1; first compound 2.53 µM) was 0.678 and the relative viability (SK-MES-1; first compound 8 µM) was 0.773. It also gave a relative viability (HARA; first compound 0.253 µM) of 0.414, a relative viability (HARA; first compound 2.53 µM) of 0.595 and a relative viability (HARA; first compound 8 µM) of 0.417. It also gave a relative viability (NCI-H661; first compound 0.253 µM) of 0.276, a relative viability (NCI-H661; first compound 0.8 µM) of 0.314 and a relative viability (NCI-H661; first compound 2.53 µM) of 0.296. For the same compound, the relative viability (NCI-H661; first compound 8 µM) was 0.249, the relative viability (BEN; first compound 0.253 µM) was 0.287 and the relative viability (BEN; first compound 0.8 µM) was 0.268. For the same compound, the relative viability (BEN; first compound 2.53 µM) was 0.285, the relative viability (BEN; first compound 8 µM) was 0.222 and the relative viability (NCI-H647; first compound 0.253 µM) was 0.438. For the same compound, the relative viability (NCI-H647; first compound 0.8 µM) was 0.487, the relative viability (NCI-H647; first compound 2.53 µM) was 0.703 and the relative viability (NCI-H647; first compound 8 µM) was 0.581. For the same compound, the relative viability (CAL-12T; first compound 0.253 µM) was 0.548, the relative viability (CAL-12T; first compound 0.8 µM) was 0.633 and the relative viability (CAL-12T; first compound 2.53 µM) was 0.639. It also gave a relative viability (CAL-12T; first compound 8 µM) of 0.647, a relative viability (NCI-H322M; first compound 0.253 µM) of 0.801 and a relative viability (NCI-H322M; first compound 0.8 µM) of 0.894. The relative viability (NCI-H322M; first compound 2.53 µM) was 0.863, the relative viability (NCI-H322M; first compound 8 µM) was 0.846 and the relative viability (NCI-H2170; first compound 0.253 µM) was 0.47. For the same compound, the relative viability (NCI-H2170; first compound 0.8 µM) was 0.425, the relative viability (NCI-H2170; first compound 2.53 µM) was 0.414 and the relative viability (NCI-H2170; first compound 8 µM) was 0.481. It also gave a relative viability (UMC-11; first compound 0.253 µM) of 0.317, a relative viability (UMC-11; first compound 0.8 µM) of 0.328 and a relative viability (UMC-11; first compound 2.53 µM) of 0.389. It also gave a relative viability (UMC-11; first compound 8 µM) of 0.339, a relative viability (NCI-H650; first compound 0.253 µM) of 0.528 and a relative viability (NCI-H650; first compound 2.53 µM) of 0.523. For the same compound, the relative viability (NCI-H650; first compound 8 µM) was 0.42, the relative viability (NCI-H1395; first compound 0.253 µM) was 0.436 and the relative viability (NCI-H1395; first compound 0.8 µM) was 0.403. For the same compound, the relative viability (NCI-H1395; first compound 2.53 µM) was 0.508 and the relative viability (NCI-H1395; first compound 8 µM) was 0.419.
